The numbers were not newly measured in patent US20230390254A1, “PHARMACEUTICAL COMPOSITIONS OF UBROGEPANT AND PROCESS FOR PREPARATION THEREOF” (Aurobindo Pharma Ltd, priority 2022, published 2023), which cites them from elsewhere.

Read-outs that look alike come from different tables or passages of the source.

Test in series [1]: not given
This is another data set of the same source.

The conditions of series [2]: disclosed in U.S. Pat. No. 10,117,836.

With `C[C@@H]1[C@H](c2ccccc2)C[C@H](NC(=O)c2cnc3c(c2)C[C@@]2(C3)C(=O)Nc3ncccc32)C(=O)N1CC(F)(F)F` [Ubrogepant, (3′S)—N-((3 S,5S,6R)-6-methyl-2-oxo-5-phenyl-1-(2,2,2trifluoroethyl)piperidin-3-yl)-2′-oxo-1′,2′,5,7 tetrahydrospiro[cyclopenta[b]pyridine-6,3′-pyrrolo[2,3b]pyridine]-3-carboxamide], the solubility result (in acetone) is on record as “freely soluble”; the solubility entry (in acetonitrile) is “freely soluble”; the solubility result (in ethanol) was “freely soluble”; the solubility result (in methanol) is “freely soluble”; the solubility result (in water) is “insoluble”. Moreover, in series [1], the “solubility (BCS)” value is listed as “low solubility”. Also, the aqueous solubility entry in series [2] was “poor aqueous solubility”.
